According to PMC10650131 (International Journal of Molecular Sciences, 2023):
Several values for one entry are separate records, joined by “and”; a condition that tells them apart may be missing. Equal values may be shown once. Entries after “also recorded” stand apart in the source; their conditions may differ. Read-outs that look alike come from different tables or passages of the source.

Key:
hMAO-B = target: T1, hMAO-B (Homo sapiens, UniProt P27338); assay: In vitro hMAO-B inhibition and enzyme kinetics, chemiluminescent MAO-Glo assay; assay type: biochemical; details: for IC50: recombinant hMAO-B, mean ± SD of triplicate experiments; for SI (selective index): ratio of hMAO-A IC50/hMAO-B IC50
T1 construct: purchased Sigma-Aldrich
T1 sequence (P27338 1-520): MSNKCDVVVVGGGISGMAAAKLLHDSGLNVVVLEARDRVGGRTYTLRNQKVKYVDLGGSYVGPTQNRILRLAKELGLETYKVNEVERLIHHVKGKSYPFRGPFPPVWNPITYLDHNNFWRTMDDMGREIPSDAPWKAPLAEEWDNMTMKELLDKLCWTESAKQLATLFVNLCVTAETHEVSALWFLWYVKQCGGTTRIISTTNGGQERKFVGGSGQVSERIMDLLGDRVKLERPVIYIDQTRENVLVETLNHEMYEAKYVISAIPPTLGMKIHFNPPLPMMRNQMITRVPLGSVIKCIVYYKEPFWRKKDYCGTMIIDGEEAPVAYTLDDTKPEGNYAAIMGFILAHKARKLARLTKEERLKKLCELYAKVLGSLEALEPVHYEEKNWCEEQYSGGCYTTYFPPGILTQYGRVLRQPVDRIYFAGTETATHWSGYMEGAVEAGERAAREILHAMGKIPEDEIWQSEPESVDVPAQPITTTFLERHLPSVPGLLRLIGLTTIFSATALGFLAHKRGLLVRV
Procedure: (§1) A chemiluminescent assay was performed in a white, opaque 96-well plate using the MAO-Glo kit (Promega, Madison, WI, USA) to evaluate human monoamine oxidase (hMAO) inhibitory potential. Detailed experimental conditions and procedures were reported previously. The test compounds were evaluated at different concentrations to obtain an IC50 value. The percent of inhibition (%) was obtained with the following equation: % Inhibition = (Ac − As)/Ac × 100, where Ac is the absorbance of the control and As is the absorbance of the sample. For hMAO-A, clorgyline was used as a positive control.
(§2) Kinetic parameters were analyzed using SigmaPlot (v12.0, SPP Inc., Chicago, IL, USA).

hD4.4R = target: T2, hD4.4R (Homo sapiens, UniProt P21917); assay: Cell-based functional GPCR assay, cAMP, CHO-D4R; details: for % Stimulation, hD4.4R: 100 μM compound, % of control agonist response (300 nM DA)
T2 sequence (P21917 1-419): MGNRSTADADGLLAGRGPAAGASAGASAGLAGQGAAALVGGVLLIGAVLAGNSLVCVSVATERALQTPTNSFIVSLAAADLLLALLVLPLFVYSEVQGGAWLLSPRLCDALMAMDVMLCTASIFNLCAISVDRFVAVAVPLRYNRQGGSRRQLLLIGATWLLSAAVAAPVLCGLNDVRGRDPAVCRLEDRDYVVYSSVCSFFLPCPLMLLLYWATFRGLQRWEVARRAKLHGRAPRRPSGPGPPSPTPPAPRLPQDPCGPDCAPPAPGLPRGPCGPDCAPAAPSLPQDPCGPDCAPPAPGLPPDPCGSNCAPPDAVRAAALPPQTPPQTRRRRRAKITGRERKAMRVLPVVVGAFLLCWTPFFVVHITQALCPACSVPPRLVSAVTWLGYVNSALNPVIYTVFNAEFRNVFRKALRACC
Procedure: (§3) Cell-based functional GPCR assays were conducted in CHO cells and Ba/F3 cells transfected with a plasmid containing the GPCR gene of interest. The functional activity of the test compounds (agonist or antagonist) was evaluated by measuring their effects on cAMP modulation or Ca^2+ ion mobilization, depending on the receptor type. All assays were performed at Eurofins Cerep (Le Bois I’Eveque, France) following their in-house protocol, as stated in our previous reports.
(§4) The functional activity of the test compounds on D1R, D3R, and D4R was assessed by evaluating the effect on cAMP modulation.

hD3R = hD3R (Homo sapiens, UniProt P35462); assay: Cell-based functional GPCR assay, cAMP, CHO-D3R
Procedure: as §3, §4

h5HT1AR = target: T3, h5HT1AR (Homo sapiens, UniProt P08908); assay: Cell-based functional GPCR assay, Ca2+ mobilization, Ba/F3-5HT1AR; details: for % Stimulation, h5HT1AR: 100 μM compound, % of control agonist response (2.5 μM serotonin)
T3 construct: host or cells: Ba/F3 (Ba/F3-5HT1AR)
T3 sequence (P08908 1-422): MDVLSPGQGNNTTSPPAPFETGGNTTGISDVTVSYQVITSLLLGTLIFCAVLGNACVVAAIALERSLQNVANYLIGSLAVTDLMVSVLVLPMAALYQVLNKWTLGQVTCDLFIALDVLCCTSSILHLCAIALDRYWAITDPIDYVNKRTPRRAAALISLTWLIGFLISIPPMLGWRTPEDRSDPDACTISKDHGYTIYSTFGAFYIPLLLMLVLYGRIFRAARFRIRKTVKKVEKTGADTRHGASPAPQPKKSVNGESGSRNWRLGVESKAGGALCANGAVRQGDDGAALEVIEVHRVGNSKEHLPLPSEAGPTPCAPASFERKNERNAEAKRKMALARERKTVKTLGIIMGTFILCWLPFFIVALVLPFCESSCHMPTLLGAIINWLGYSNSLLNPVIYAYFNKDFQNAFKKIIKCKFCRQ
Procedure: as §3
(§5) The functional activity of the test compounds on D2R and 5HT1AR was tested by fluorimetrically evaluating their effect on cytosolic Ca^2+ ion mobilization. […] Then, a fluorescent probe (Fluo8, AAT Bioquest, Sunnyvale, CA, USA) mixed with probenecid in HBSS (Invitrogen, Carlsbad, CA, USA) supplemented with […] (Invitrogen) (pH 7.4) was added to each well, and the cells were allowed to equilibrate for 60 min at 37 °C. […] We then measured the fluorescent intensity, which varied in proportion to the free cytosolic Ca^2+ ion concentration.

hD2LR = target: T4, hD2LR (Homo sapiens, UniProt P14416); assay: Cell-based functional GPCR assay, Ca2+ mobilization, CHO-D2R; details: for % Stimulation, hD2LR: 100 μM compound, % of control agonist response (10 μM DA)
T4 construct: host or cells: CHO (CHO-D2R)
Procedure: as §3, §5

hD1R = hD1R (Homo sapiens, UniProt P21728); assay: Cell-based functional GPCR assay, cAMP, CHO-D1R; details: for % Stimulation, hD1R: 100 μM compound, % of control agonist response (10 μM DA)
Procedure: as §3, §4

male C57BL/6 mice = assay: Forced swim test; assay type: in vivo, mouse
Procedure: Male C57BL/6 mice (22–26 g, 7 weeks) were purchased from Orient Bio Inc. (Seongnam-si, Korea), a branch of Charles River Laboratories (Seoul, Republic of Korea), and kept in the University Animal Care Unit for 1 week before the experiments. Five animals were housed per cage and allowed access to water and food ad libitum; the environment was maintained at a constant temperature (23 ± 1 °C) and humidity (60 ± 10%) under a 12 h light/dark cycle (the lights were on from 07:30 to 19:30 h). The treatment and maintenance of the animals were carried out according to the Animal Care and Use Guidelines of Dong-A University, Republic of Korea. All in vivo experiments were performed according to the protocols approved by the Institutional Animal Care and Use Committee of Dong-A University (approved protocol numbers: DIACUC-approved-17-20) and were per the National Institutes of Health guidelines. A forced swim test (FST) was performed in a transparent cylindrical glass cylinder with a diameter of 14 cm and a height of 25 cm filled with 20 cm of water (24 ± 2 °C). Mice were habituated to the experimental environment 1 h before the test. […] Mice were immersed in water and recorded with a video camera for a total of 6 min. Immobility time was analyzed for the last 4 min of the 6 min using a video-based Ethovision System (Noldus, Wageningen, The Netherlands).

MAO-A = system: MAO-A; design: method as in earlier work; details: ref 49 (Park et al. 2020); cited from earlier work
hMAO-A = target: T5, hMAO-A (Homo sapiens, UniProt P21397); assay: In vitro hMAO-A inhibition and enzyme kinetics, chemiluminescent MAO-Glo assay; assay type: biochemical; details: recombinant hMAO-A; mean ± SD of triplicate experiments
T5 construct: purchased Sigma-Aldrich
T5 sequence (P21397 1-527): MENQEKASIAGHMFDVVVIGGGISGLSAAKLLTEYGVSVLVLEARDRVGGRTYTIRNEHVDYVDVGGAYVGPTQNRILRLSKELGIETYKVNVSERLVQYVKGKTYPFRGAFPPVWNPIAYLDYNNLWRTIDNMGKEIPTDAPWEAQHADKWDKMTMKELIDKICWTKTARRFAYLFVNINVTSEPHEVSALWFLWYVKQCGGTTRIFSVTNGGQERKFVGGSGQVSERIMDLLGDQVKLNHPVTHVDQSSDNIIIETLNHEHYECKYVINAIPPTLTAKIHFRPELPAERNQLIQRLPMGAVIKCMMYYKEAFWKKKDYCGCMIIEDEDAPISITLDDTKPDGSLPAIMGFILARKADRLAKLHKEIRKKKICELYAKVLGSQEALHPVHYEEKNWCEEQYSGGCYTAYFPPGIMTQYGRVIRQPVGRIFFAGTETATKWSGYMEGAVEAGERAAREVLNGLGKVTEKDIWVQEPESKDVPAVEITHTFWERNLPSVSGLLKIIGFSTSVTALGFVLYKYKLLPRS
Procedure: as §1, §2

[1] = design: method as in PMID 31173966; details: cited from earlier work

T4 sequence (P14416 whole entry): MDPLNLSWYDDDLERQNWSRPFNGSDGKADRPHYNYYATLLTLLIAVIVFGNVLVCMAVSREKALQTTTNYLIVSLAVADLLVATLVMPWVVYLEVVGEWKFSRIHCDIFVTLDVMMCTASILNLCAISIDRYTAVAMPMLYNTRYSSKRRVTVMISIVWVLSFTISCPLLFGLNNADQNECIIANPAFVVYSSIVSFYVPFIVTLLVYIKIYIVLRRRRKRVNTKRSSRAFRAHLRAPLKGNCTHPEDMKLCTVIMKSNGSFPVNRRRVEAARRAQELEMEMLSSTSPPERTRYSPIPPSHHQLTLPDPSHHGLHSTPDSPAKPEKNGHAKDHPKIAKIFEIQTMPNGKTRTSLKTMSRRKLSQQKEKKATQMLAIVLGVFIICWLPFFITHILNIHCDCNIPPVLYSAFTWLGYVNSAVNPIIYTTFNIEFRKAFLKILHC
hD3R, sequence (P35462 whole entry): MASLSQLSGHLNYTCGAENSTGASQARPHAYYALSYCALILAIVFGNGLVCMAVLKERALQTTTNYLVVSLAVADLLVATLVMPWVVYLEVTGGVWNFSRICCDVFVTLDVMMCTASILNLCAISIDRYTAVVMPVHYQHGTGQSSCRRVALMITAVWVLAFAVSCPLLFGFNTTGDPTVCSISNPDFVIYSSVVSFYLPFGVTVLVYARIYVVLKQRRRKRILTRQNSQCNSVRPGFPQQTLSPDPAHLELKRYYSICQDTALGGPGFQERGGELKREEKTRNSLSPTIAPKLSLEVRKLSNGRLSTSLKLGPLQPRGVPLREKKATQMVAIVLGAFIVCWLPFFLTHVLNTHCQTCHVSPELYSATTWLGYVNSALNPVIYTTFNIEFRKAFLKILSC
hD1R, sequence (P21728 whole entry): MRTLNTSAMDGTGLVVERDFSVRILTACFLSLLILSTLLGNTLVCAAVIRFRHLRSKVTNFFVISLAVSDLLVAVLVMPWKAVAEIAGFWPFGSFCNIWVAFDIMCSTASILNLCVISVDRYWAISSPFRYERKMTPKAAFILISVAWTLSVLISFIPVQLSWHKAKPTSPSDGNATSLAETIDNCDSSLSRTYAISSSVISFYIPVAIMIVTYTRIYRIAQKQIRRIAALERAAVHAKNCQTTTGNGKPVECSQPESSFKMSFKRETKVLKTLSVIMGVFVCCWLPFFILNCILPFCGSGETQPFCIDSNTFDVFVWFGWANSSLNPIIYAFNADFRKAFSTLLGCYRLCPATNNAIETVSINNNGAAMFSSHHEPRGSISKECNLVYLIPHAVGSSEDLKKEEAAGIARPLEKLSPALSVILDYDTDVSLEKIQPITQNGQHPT

| Structure (SMILES) | IC50 (hMAO-B) | inhibition at 100 µM (hD4.4R) [%] | % Stimulation, hD4.4R (hD4.4R) [%] | inhibition at 100 µM (hD3R) [%] | inhibition at 100 µM (h5HT1AR) [%] | % Stimulation, h5HT1AR (h5HT1AR) [%] | inhibition at 100 µM (hD2LR) [%] | % Stimulation, hD2LR (hD2LR) [%] | inhibition at 100 µM (hD1R) [%] | % Stimulation, hD1R (hD1R) [%] | SI (selective index) (hMAO-B) | IC50 (hMAO-A) [µM] | also measured |
| --- | --- | --- | --- | --- | --- | --- | --- | --- | --- | --- | --- | --- | --- |
| O=c1cc(-c2ccc(O)c(O)c2)oc2cc(O)cc(O)c12 [luteolin, 3′,4′,5,7-tetrahydroxyflavone] |  |  |  |  |  |  |  |  |  |  |  |  | IC50 (MAO-A): 8.57 ± 0.47 µM |
| CNCCCN1c2ccccc2CCc2ccccc21 [desipramine, reference compound] |  |  |  |  |  |  |  |  |  |  |  |  | Immobility time in forced swimming test (male C57BL/6 mice; 15 mg/kg dose p.o., positive control): significant reduction in immobility time |
| C=C(C)[C@@H]1CCC(C)=C[C@H]1c1c(O)cc(CCCCC)cc1O [cannabidiol] |  |  |  |  |  |  |  |  |  |  |  |  | Effect on depressive symptoms ([1]; 10 mg/kg i.v. weekly for four weeks): significantly improve depressive symptoms; Effect on depressive symptoms ([1]; 10 mg/kg p.o.): no significant effects; Effect on depressive symptoms ([1]; 100 mg/kg p.o. weekly for four weeks): significantly improve depressive symptoms |

The next lines start with results.

| IC50 (hMAO-B) | inhibition at 100 µM (hD4.4R) [%] | % Stimulation, hD4.4R (hD4.4R) [%] | inhibition at 100 µM (hD3R) [%] | inhibition at 100 µM (h5HT1AR) [%] | % Stimulation, h5HT1AR (h5HT1AR) [%] | inhibition at 100 µM (hD2LR) [%] | % Stimulation, hD2LR (hD2LR) [%] | inhibition at 100 µM (hD1R) [%] | % Stimulation, hD1R (hD1R) [%] | SI (selective index) (hMAO-B) | IC50 (hMAO-A) [µM] | Structure (SMILES) | also measured |
| --- | --- | --- | --- | --- | --- | --- | --- | --- | --- | --- | --- | --- | --- |
| > 150 µM | 134 | 10.33 ± 7.46 | -0.97 | 18.1 | −2.9 ± 0.28 | -40 | −22.45 ± 2.05 | 0.7 | 6.95 ± 14.07 |  |  | O=c1cc(-c2ccc(O)c(O)c2)oc2cc(O)ccc12 [Compound 1, 3′,4′,7-trihydroxyflavone] | inhibition at 12.5 µM (hD4.4R; 12.5 µM compound, read-out: % inhibition of the response of the control agonist, hD4.4R): 40.9%; inhibition at 25 µM (hD4.4R; 25 µM compound, read-out: % inhibition of the response of the control agonist, hD4.4R): 57.6%; inhibition at 50 µM (hD4.4R; 50 µM compound, read-out: % inhibition of the response of the control agonist, hD4.4R): 69%; IC50 (hD4.4R; read-out: IC50, antagonist effect at hD4.4R): 22.5 ± 2.18 µM; % Stimulation, hD3R (hD3R; 100 μM compound, % of control agonist response (300 nM DA)): 38.5 ± 5.94%; Immobility time in forced swimming test (male C57BL/6 mice; 3, 10, and 30 mg/kg p.o., 1 h before FST): did not reduce the immobility time; also recorded: none of those doses alleviated the immobility time; also recorded: did not show an antidepressant effect |
| ~70 µM and 71.2 µM | -11.2 | 35.8 ± 10.59 | -8 | 7.3 | −1.1 ± 0.42 | -25.8 | −18.35 ± 0.78 | 22.2 | −3.1 ± 5.66 | 2.48 | 177 ± 7.8 | O=c1c(-c2ccc(O)c(O)c2)coc2cc(O)ccc12 [Compound 2, 3′,4′,7-trihydroxyisoflavone] |  |
| 7.19 ± 0.32 µM | -27.3 | 33.63 ± 12.10 | -7.97 | 16.8 | 2.5 ± 0.42 | -18.6 | −13.8 ± 0.28 | 47.8 | 5.65 ± 11.53 | 15.82 | 114 ± 3.39 | COc1ccc(-c2coc3cc(O)ccc3c2=O)cc1O [Compound 3, calycosin] | Ki (hMAO-B; Lineweaver–Burk plot and its secondary plots, read-out: Inhibition constants (Ki) hMAO-B): 2.56 µM; Inhibition mode, hMAO-B (hMAO-B; secondary plot of slopes (Kmapp/Vmaxapp) versus concentrations of inhibitor): Competitive |
